Measured values reported in ChEMBL document CHEMBL2434861, “Novel promising linezolid analogues: rational design, synthesis and biological evaluation” (2013).
≈ marks a conversion by molar mass, not a printed value.

What was measured:
Staphylococcus aureus [1] = assay: Antimicrobial activity against methicillin-susceptible Staphylococcus aureus ATCC 29213 after 16 to 20 hrs by microdilution method; assay type: functional
Staphylococcus aureus [2] = assay: Antimicrobial activity against methicillin-resistant Staphylococcus aureus ATCC 43300 after 16 to 20 hrs by microdilution method; assay type: functional

| MIC (Staphylococcus aureus [1]) [µg/mL] | SMILES | MIC (Staphylococcus aureus [2]) [µg/mL] |
| --- | --- | --- |
| > 100 | O=C(NC[C@H]1CN(c2ccc(N3CCOCC3)c(F)c2)C(=O)O1)Nc1ccccc1 | – |
| > 100 | COc1ccc(NC(=O)NC[C@H]2CN(c3ccc(N4CCOCC4)c(F)c3)C(=O)O2)cc1 | – |
| > 100 | O=C(NC[C@H]1CN(c2ccc(N3CCOCC3)c(F)c2)C(=O)O1)Nc1ccc([N+](=O)[O-])cc1 | – |
| > 100 | COc1ccc(NC(=S)NC[C@H]2CN(c3ccc(N4CCOCC4)c(F)c3)C(=O)O2)cc1 | – |
| 10 (≈ 23.2 µM) | O=C1O[C@@H](CNC(=S)Nc2ccccc2)CN1c1ccc(N2CCOCC2)c(F)c1 | – |

| SMILES | MIC (Staphylococcus aureus [1]) [µg/mL] | MIC (Staphylococcus aureus [2]) [µg/mL] |
| --- | --- | --- |
| O=C1O[C@@H](CNC(=S)Nc2ccc([N+](=O)[O-])cc2)CN1c1ccc(N2CCOCC2)c(F)c1 | 2 (≈ 4.21 µM) | 1 (≈ 2.1 µM) |
| CC(=O)NC[C@H]1CN(c2ccc(N3CCOCC3)c(F)c2)C(=O)O1 [LINEZOLID] | 1 (≈ 2.96 µM) | 1 (≈ 2.96 µM) |
